Assays:
[1] = biological target: Protein farnesyltransferase (Bos taurus, UniProt P29702+P49355); experiment: Inhibition of Bovine farnesyl transferase; format: protein-complex assay
[2] = biological target: Geranylgeranyl transferase type I (Bos taurus, UniProt P29702+Q5EAD5); experiment: Inhibition of Bovine geranylgeranyl transferase; format: protein-complex assay
[3] = biological target: Protein farnesyltransferase (Mus musculus, UniProt Q61239+Q8K2I1); experiment: Effective concentration against H-ras processing in transformed NIH3T3 cells; format: functional, cell-based
Bos taurus = organism: Bos taurus; experiment: Selectivity for Bovine farnesyl transferase over geranylgeranyl transferase
[4] = biological target: Protein farnesyltransferase (Bos taurus) (UniProt P29702+P49355); experiment: Percentage inhibition of Bovine farnesyl transferase at 100 nM; format: protein-complex assay

IC50 [1] [nM]	IC50 [2] [nM]	EC50 [3] [nM]	also measured	SMILES
1.3	1200	89	–	Cn1cncc1C(OCc1ccc(C#N)c(N2CCOCC2)n1)c1ccc(C#N)c(-c2ccccc2C(F)(F)F)c1 (centres undefined)
–	–	–	Selectivity (Bos taurus): 75000	CCCCN(CCC1CCCCC1)Cc1ccc(C(=O)N[C@@H](CCSC)C(=O)O)c(-c2ccccc2C)c1
59	–	–	–	COc1ccc(COC(c2ccc(C#N)c(-c3ccccc3C)c2)c2cncn2C)cc1 (centres undefined)
13	–	–	–	Cc1ccccc1-c1cc(C(OCc2ccc(-c3ccccc3)cc2)c2cncn2C)ccc1C#N (centres undefined)
27	–	–	–	Cc1ccccc1-c1cc(C(OCc2ccc(Cl)c(Cl)c2)c2cncn2C)ccc1C#N (centres undefined)
7.5	–	–	–	Cc1ccccc1-c1cc(C(OCc2ccc([N+](=O)[O-])cc2)c2cncn2C)ccc1C#N (centres undefined)
8.1	–	–	–	Cc1ccccc1-c1cc(C(OCc2cccc(C(F)(F)F)c2)c2cncn2C)ccc1C#N (centres undefined)
13	–	–	–	Cc1ccccc1-c1cc(C(OCc2cc(Cl)nc(Cl)c2)c2cncn2C)ccc1C#N (centres undefined)
61	–	–	–	Cc1cccc(COC(c2ccc(C#N)c(-c3ccccc3C)c2)c2cncn2C)c1 (centres undefined)
15	–	–	–	Cc1ccccc1-c1cc(C(OCc2cnc(Cl)c(Cl)c2)c2cncn2C)ccc1C#N (centres undefined)
13	–	–	–	Cc1ccccc1-c1cc(C(OCc2ccc(I)cc2)c2cncn2C)ccc1C#N (centres undefined)
2.1	130	> 1000	–	Cc1cccc(-c2cc(C(OCc3ccc(C#N)cc3)c3cncn3C)ccc2C#N)c1C (centres undefined)
1.7	1600	330	–	CC(=O)NC1CCN(c2nc(COC(c3ccc(C#N)c(-c4ccccc4C(F)(F)F)c3)c3cncn3C)ccc2C#N)C1 (centres undefined)
–	–	–	inhibition [1]: 65%	Cc1ccccc1-c1cc(C(OCc2ccccc2Br)c2cncn2C)ccc1C#N (centres undefined)
38	–	–	–	Cc1ccccc1-c1cc(C(OCc2cccc(F)c2)c2cncn2C)ccc1C#N (centres undefined)
8.3	–	–	–	Cc1ccccc1-c1cc(C(OCc2cccc(OC(F)(F)F)c2)c2cncn2C)ccc1C#N (centres undefined)
19	–	–	–	Cc1ccccc1-c1cc(C(OCc2cccc(Cl)c2)c2cncn2C)ccc1C#N (centres undefined)
1.5	85	240	–	Cn1cncc1C(OCc1ccc(C#N)cc1)c1ccc(C#N)c(-c2cccc(Cl)c2Cl)c1 (centres undefined)
12	–	–	–	Cc1ccccc1-c1cc(C(OCc2ccc(C(F)(F)F)cc2)c2cncn2C)ccc1C#N (centres undefined)
47	–	> 1000	–	Cn1cncc1C(OCc1ccc(C#N)cc1)c1ccc(C#N)c(-c2ccc(Cl)cc2Cl)c1 (centres undefined)
1.7	72	–	–	Cn1cncc1C(OCc1ccc(Cl)c(Cl)c1)c1ccc(C#N)c(-c2ccccc2C(F)(F)F)c1 (centres undefined)
4.1	120	100	–	Cn1cncc1C(OCc1ccc(F)c(C(F)(F)F)c1)c1ccc(C#N)c(-c2ccccc2C(F)(F)F)c1 (centres undefined)
33	–	–	–	Cc1ccccc1-c1cc(C(OCc2ccccc2[N+](=O)[O-])c2cncn2C)ccc1C#N (centres undefined)

IC50 [1] [nM]	IC50 [2] [nM]	EC50 [3] [nM]	also measured	SMILES
2.7	1500	90	–	Cn1cncc1C(OCc1ccc(C#N)cn1)c1ccc(C#N)c(-c2ccccc2C(F)(F)F)c1 (centres undefined)
1.2	2600	53	–	CN1CCN(c2nc(COC(c3ccc(C#N)c(-c4ccccc4C(F)(F)F)c3)c3cncn3C)ccc2C#N)CC1 (centres undefined)
3.6	680	210	–	Cn1cncc1C(OCc1ccc(C#N)c(N2CCC[C@@H]2C(=O)O)n1)c1ccc(C#N)c(-c2ccccc2C(F)(F)F)c1 (some centres undefined)
61	–	–	–	COC(=O)c1cccc(COC(c2ccc(C#N)c(-c3ccccc3C)c2)c2cncn2C)c1 (centres undefined)
51	–	–	–	Cc1ccccc1-c1cc(C(OCc2ccc(C(C)C)cc2)c2cncn2C)ccc1C#N (centres undefined)
32	–	–	–	Cc1ccccc1-c1cc(C(OCc2ccc(F)cc2)c2cncn2C)ccc1C#N (centres undefined)
7.7	2200	201	–	Cn1cncc1C(OCc1ccc(C#N)c(NCC2CCOC2)n1)c1ccc(C#N)c(-c2ccccc2C(F)(F)F)c1 (centres undefined)
48	–	–	–	Cc1ccccc1-c1cc(C(OCc2ccccc2Cl)c2cncn2C)ccc1C#N (centres undefined)
2.6	1800	130	–	CC(=O)N1CCN(c2nc(COC(c3ccc(C#N)c(-c4ccccc4C(F)(F)F)c3)c3cncn3C)ccc2C#N)CC1 (centres undefined)
12	–	–	–	Cc1ccccc1-c1cc(C(OCc2ccc(Br)cc2)c2cncn2C)ccc1C#N (centres undefined)
19	–	–	–	Cc1ccccc1-c1cc(C(OCc2cc(Cl)cc(Cl)c2)c2cncn2C)ccc1C#N (centres undefined)
14	–	> 1000	–	Cn1cncc1C(OCc1ccc(C#N)cc1)c1ccc(C#N)c(-c2ccccc2C(=O)O)c1 (centres undefined)
1.9	–	110	–	Cn1cncc1C(OCc1ccc(C#N)cc1)c1ccc(C#N)c(-c2ccccc2C=O)c1 (centres undefined)
160	–	–	–	Cn1cncc1C(OCc1ccc(C#N)cc1)c1ccc(C#N)c(-c2cc3ccccc3s2)c1 (centres undefined)
38	–	–	–	Cc1ccccc1-c1cc(C(OCc2ccc(S(C)(=O)=O)cc2)c2cncn2C)ccc1C#N (centres undefined)
13	–	–	–	Cc1ccccc1-c1cc(C(OCc2cccc(Br)c2)c2cncn2C)ccc1C#N (centres undefined)
1.3	1400	13	–	Cn1cncc1C(OCc1ccc(C#N)c(N2CCCC(O)C2)n1)c1ccc(C#N)c(-c2ccccc2C(F)(F)F)c1 (centres undefined)
1.8	1400	11	–	Cn1cncc1C(OCc1ccc(C#N)c(N2CCC(CO)CC2)n1)c1ccc(C#N)c(-c2ccccc2C(F)(F)F)c1 (centres undefined)
–	–	–	inhibition [4]: 56%	Cc1ccccc1-c1cc(C(OCc2noc(-c3ccccc3)n2)c2cncn2C)ccc1C#N (centres undefined)
–	–	–	inhibition [4]: 50%	COC(=O)c1ccc(COC(c2ccc(C#N)c(-c3ccccc3C)c2)c2cncn2C)o1 (centres undefined)
20	–	–	–	Cc1ccccc1-c1cc(C(OCc2cccc(I)c2)c2cncn2C)ccc1C#N (centres undefined)
11	–	–	–	Cc1ccccc1-c1cc(C(OCc2ccc(Cl)cc2)c2cncn2C)ccc1C#N (centres undefined)
81	–	–	–	Cc1ccccc1-c1cc(C(OCc2c(Cl)cccc2Cl)c2cncn2C)ccc1C#N (centres undefined)

IC50 [1] [nM]	IC50 [2] [nM]	EC50 [3] [nM]	also measured	SMILES
4	–	–	–	Cc1ccccc1-c1cc(C(OCc2ccc(C#N)cc2)c2cncn2C)ccc1C#N (stereo in doubt; 4q)
–	–	–	inhibition [4]: 76%	Cc1ccccc1-c1cc(C(OCc2ccc3ccccc3c2)c2cncn2C)ccc1C#N (centres undefined)
29	–	–	–	Cc1ccccc1-c1cc(C(OCc2csc(-c3ccc(Cl)cc3)n2)c2cncn2C)ccc1C#N (centres undefined)
–	310	85	–	Cn1cncc1C(OCc1ccc(C#N)cc1)c1ccc(C#N)c(-c2ccccc2C(F)(F)F)c1 (centres undefined)
16	–	–	–	Cc1ccccc1-c1cc(C(OCc2ccc(OC(F)(F)F)cc2)c2cncn2C)ccc1C#N (centres undefined)
70	–	–	–	Cc1ccccc1-c1cc(C(OCc2ccccc2F)c2cncn2C)ccc1C#N (centres undefined)
3.5	970	120	–	Cn1cncc1C(OCc1ccc(C#N)c(N2CCC(O)C2)n1)c1ccc(C#N)c(-c2ccccc2C(F)(F)F)c1 (centres undefined)
2	920	170	–	Cn1cncc1C(OCc1ccc(C#N)c(N2CCC[C@@H]2CO)n1)c1ccc(C#N)c(-c2ccccc2C(F)(F)F)c1 (some centres undefined)
54	–	–	–	Cc1ccccc1COC(c1ccc(C#N)c(-c2ccccc2C)c1)c1cncn1C (centres undefined)
59	–	–	–	Cc1ccccc1-c1cc(C(OCc2cccc3cccnc23)c2cncn2C)ccc1C#N (centres undefined)
1.3	2000	30	–	Cn1cncc1C(OCc1ccc(C#N)c(N2CCN(CCO)CC2)n1)c1ccc(C#N)c(-c2ccccc2C(F)(F)F)c1 (centres undefined)
–	–	110	–	Cn1cncc1C(OCc1ccc(C#N)cc1)c1ccc(C#N)c(-c2cccc3ccccc23)c1 (centres undefined)
9.1	2300	> 1000	–	Cn1cncc1C(OCc1ccc(C#N)c(NCCc2ccccc2)n1)c1ccc(C#N)c(-c2ccccc2C(F)(F)F)c1 (centres undefined)
10	750	–	–	Cn1cncc1C(OCc1ccc(C#N)c(NCc2cccc(F)c2)n1)c1ccc(C#N)c(-c2ccccc2C(F)(F)F)c1 (centres undefined)
6.1	160	> 1000	–	Cn1cncc1C(OCc1ccc(C(F)(F)F)c(F)c1)c1ccc(C#N)c(-c2ccccc2C(F)(F)F)c1 (centres undefined)
4.8	180	420	–	Cc1ccccc1-c1cc(C(OCc2ccc(C#N)cc2)c2cncn2C)ccc1C#N (stereo in doubt; 10a)
87	–	–	–	Cc1ccccc1-c1cc(C(OCc2ccc(C(C)(C)C)cc2)c2cncn2C)ccc1C#N (centres undefined)
6.1	–	–	–	COC(=O)c1ccc(COC(c2ccc(C#N)c(-c3ccccc3C)c2)c2cncn2C)cc1 (centres undefined)
54	–	–	–	Cc1ccc(COC(c2ccc(C#N)c(-c3ccccc3C)c2)c2cncn2C)cc1 (centres undefined)
17	–	–	–	Cc1ccccc1-c1cc(C(OCc2cccc3ccccc23)c2cncn2C)ccc1C#N (centres undefined)
62	–	–	–	Cc1ccccc1-c1cc(C(OCc2ccccc2C#N)c2cncn2C)ccc1C#N (centres undefined)
